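Exposure lasted 48 hours, with cells grown in 96-well plates and compounds tested at five concentrations. GI50 = concentration required for 50% inhibition of growth.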 The source made the active and inactive calls. Cut-off read from the data, not from the text of the source: active = GI50 up to about 1.1 µM and inactive = higher.
How the values were obtained:
Assay in all cases: DTP human tumour cell line panel, 48 h
[1] = tested on: RXF 393
[2] = tested on: UO-31
[3] = tested on: IGROV-1
[4] = tested on: RPMI-8226
[5] = tested on: OVCAR-3
[6] = tested on: SR
[7] = tested on: CAKI-1
[8] = tested on: SF-295
[9] = tested on: NCI-H23
[10] = tested on: HOP-62
[11] = tested on: UACC-62
[12] = tested on: M14
[13] = tested on: KM12
[14] = tested on: ACHN
[15] = tested on: HCC 2998
[16] = tested on: SW-620

Compound | GI50 [1] | GI50 [2] | GI50 [3] | GI50 [4] | GI50 [5] | GI50 [6] | GI50 [7] | GI50 [8] | GI50 [9] | GI50 [10] | GI50 [11] | GI50 [12] | GI50 [13] | GI50 [14] | GI50 [15] | GI50 [16]
CCOC(=O)C(CCCNC(=O)OC(C)(C)C)N(Cc1ccc(OC)cc1OC)C(=O)CC(=O)CP(=O)(OCC)OCC (stereo not given) | > 100 µM (inactive) | > 100 µM (inactive) | > 100 µM (inactive) | > 100 µM (inactive) | > 100 µM (inactive) | 42.7 µM (inactive) | > 100 µM (inactive) | > 100 µM (inactive) | > 100 µM (inactive) | > 100 µM (inactive) | > 100 µM (inactive) | > 100 µM (inactive) | > 100 µM (inactive) | > 100 µM (inactive) | > 100 µM (inactive) | –
COC(=O)C1=C(c2cc(OC)c(OC)c(OC)c2)O[C@H](c2ccc3c(c2)OCO3)[C@H]1COC(C)=O | – | 20.9 µM (inactive) | 22.2 µM (inactive) | 24.2 µM (inactive) | 30.5 µM (inactive) | 7.35 µM (inactive) | 19.8 µM (inactive) | 6.85 µM (inactive) | 19.1 µM (inactive) | 21.5 µM (inactive) | – | 15.3 µM (inactive) | 20.2 µM (inactive) | 26.4 µM (inactive) | 18.3 µM (inactive) | 25.2 µM (inactive)
O=c1c2cc3c(cc2c2cccc4c2n1CCC4)OCO3 | 28.4 µM (inactive) | 22.4 µM (inactive) | 36.1 µM (inactive) | 30.2 µM (inactive) | 61.2 µM (inactive) | 29.2 µM (inactive) | 78.9 µM (inactive) | 33.8 µM (inactive) | 22.4 µM (inactive) | 56.8 µM (inactive) | 46.2 µM (inactive) | 46.9 µM (inactive) | 33.3 µM (inactive) | 33.7 µM (inactive) | 26.6 µM (inactive) | 29.4 µM (inactive)
O=C(CSc1nnc(Cc2ccccc2)o1)Nc1ccc(Cl)cc1[N+](=O)[O-] | 19.2 µM (inactive) | 18.4 µM (inactive) | – | 17.9 µM (inactive) | – | 26.2 µM (inactive) | – | 18.7 µM (inactive) | 17.4 µM (inactive) | 17.4 µM (inactive) | 14.2 µM (inactive) | 16.5 µM (inactive) | > 10 µM (inactive) | 12.6 µM (inactive) | – | 25.1 µM (inactive)
CCOC(=O)CNC(SC)=C(C#N)C#N | > 100 µM (inactive) | 36.7 µM (inactive) | > 100 µM (inactive) | > 100 µM (inactive) | > 100 µM (inactive) | > 100 µM (inactive) | > 100 µM (inactive) | > 100 µM (inactive) | > 100 µM (inactive) | > 100 µM (inactive) | > 100 µM (inactive) | > 100 µM (inactive) | > 100 µM (inactive) | – | > 100 µM (inactive) | > 100 µM (inactive)
CCOC(=O)C(C(=O)OCC)=c1sc(=C(C(=O)OCC)C(=O)OCC)s1 | > 100 µM (inactive) | – | > 100 µM (inactive) | > 100 µM (inactive) | > 100 µM (inactive) | – | > 100 µM (inactive) | > 100 µM (inactive) | > 100 µM (inactive) | > 100 µM (inactive) | > 100 µM (inactive) | > 100 µM (inactive) | > 100 µM (inactive) | > 100 µM (inactive) | > 100 µM (inactive) | > 100 µM (inactive)
O=C1C=C(Nc2ccccc2C(=O)c2ccccc2)c2ccccc2C1=O | > 100 µM (inactive) | > 100 µM (inactive) | > 100 µM (inactive) | 51.6 µM (inactive) | 70 µM (inactive) | 48.1 µM (inactive) | > 100 µM (inactive) | > 100 µM (inactive) | > 100 µM (inactive) | > 100 µM (inactive) | 8.04 µM (inactive) | > 100 µM (inactive) | 33.3 µM (inactive) | 45 µM (inactive) | > 100 µM (inactive) | 87.9 µM (inactive)
C/C(=N\NC(=S)N1CCCCCC1)c1nccnc1C | 0.231 µM (active) | – | < 0.01 µM (active) | 0.159 µM (active) | < 0.01 µM (active) | – | 0.155 µM (active) | 0.124 µM (active) | < 0.01 µM (active) | 35.3 µM (inactive) | < 0.01 µM (active) | < 0.01 µM (active) | 0.0887 µM (active) | 0.219 µM (active) | 7.36 µM (inactive) | < 0.01 µM (active)
Cc1[nH]c2c(C)cccc2c1C1Cc2ccccc2N1 (stereo not given) | 10.7 µM (inactive) | 22.1 µM (inactive) | 17.3 µM (inactive) | 22.9 µM (inactive) | 16.7 µM (inactive) | 20.7 µM (inactive) | – | 19.8 µM (inactive) | 20.3 µM (inactive) | 16.4 µM (inactive) | 18.6 µM (inactive) | 15.5 µM (inactive) | 17.5 µM (inactive) | 27.4 µM (inactive) | – | 26.4 µM (inactive)
